Here are results for 24 compounds from US20230059136A1, “THE COMPOUNDS AND COMPOSITIONS FOR TREATING CONDITIONS ASSOCIATED WITH NLRP ACTIVITY” (Novartis AG, priority 2018, published 2023).

One may read the IC50 as the concentration that inhibits the measured activity by half.

One test concerns IL-1β production in PMA-differentiated THP-1 cells. As to the kind of experiment: IL-1β production in PMA-differentiated THP-1 cells stimulated with gramicidin (hTHP-1 assay containing 2% fetal bovine serum). It counts as cell-based, human. To be noted: Homo sapiens, THP-1, Table B1; 2% fetal bovine serum; cells printed as numeric bound; read-out: hTHP-1 IC50 (Average IC50 of compounds in hTHP-1 assay). A digest of the protocol:
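THP-1 cells were differentiated with PMA 20 ng/ml for 16-18 h, then plated at 50,000 cells/well in RPMI with 2% FBS. They were preincubated 1 h with compound (100–0.0017 μM final, 0.37% DMSO), then stimulated with gramicidin 5 μM for 2 h. Supernatant IL-1β was measured by HTRF.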
For `NS(=O)(=NC(=O)Cc1c2c(cc3c1CCC3)CCC2)c1cnn2c1OCCC2` (single isomer, unassigned) [Example 269, (R) or (S)-N-(amino(6,7-dihydro-5H-pyrazolo[5,1-b][1,3]oxazin-3-yl)(oxo)-λ^6-sulfaneylidene)-2-(1,2,3,5,6,7-hexahydro-s-indacen-4-yl)acetamide], the IC50 is > 30000 nM.
Take `CC(C)c1cc(CCC2CCCCC2)cc(C(C)C)c1CC(=O)N=S(N)(=O)c1cc(C(C)(C)O)n(-c2ccccc2)n1` (single isomer, unassigned) [Example 282, (S) or (R)-N-(amino(5-(2-hydroxypropan-2-yl)-1-phenyl-1H-pyrazol-3-yl)(oxo)-λ^6-sulfaneylidene)-2-(4-(2-cyclohexylethyl)-2,6-diisopropylphenyl) acetamide]: the IC50 was > 30000 nM.

Staying with this test, now noted: Homo sapiens, THP-1, Table B1; 2% fetal bovine serum; class symbols; read-out: hTHP-1 IC50 (Average IC50 of compounds in hTHP-1 assay).
For `CC(C)c1cc(COC2CCCC2)cc(C(C)C)c1CC(=O)N=S(N)(=O)c1cnc(C(C)(O)CO)s1` (stereo not drawn) [Example 251, N-(amino(2-(1,2-dihydroxypropan-2-yl)thiazol-5-yl)(oxo)-λ^6-sulfaneylidene)-2-(4-((cyclopentyloxy)methyl)-2,6-diisopropylphenyl)acetamide], the IC50 was in the range of 200 to 1000 nM.
For `CC(C)c1cc(C(F)F)cc(C(C)C)c1CC(=O)N=S(N)(=O)c1ccc(CN(C)C)cc1` (stereo not drawn) [Example 257, N-(amino(4-((dimethylamino)methyl)phenyl) (oxo)-λ^6-sulfaneylidene)-2-(4-(difluoromethyl)-2,6-diisopropylphenyl)acetamide], the IC50 is 1000 to 5000 nM.
Turning to `CC(C)c1ccc(F)c(C(C)C)c1CC(=O)N=S(N)(=O)c1cc(C(C)(C)O)cs1` (stereo not drawn) [Example 106, N-(ainino(4-(2-hydroxypropan-2-yl)thiophen-2-yl)(oxo)-λ^6-sulfaneylidene)-2-(3-fluoro-2,6-diisopropylphenyl)acetamide], the IC50 is 40 to 200 nM.
Same read-out and setting: then `CC(C)c1cc2c(c(C(C)C)c1CC(=O)N=S(=O)(NC#N)c1cc(C(C)(C)O)cs1)COC2` (stereo in doubt) [Example 343, (S)-N-(cyanamido(4-(2-hydroxypropan-2-yl)thiophen-2-yl)(oxo)-λ^6-sulfaneylidene)-2-(4,6-diisopropyl-1,3-dihydroisobenzofuran-5-yl)acetamide], with 5000 to 30000 nM; and `CC(C)c1cc2c(c(C(C)C)c1CC(=O)N=S(N)(=O)c1sc(C(C)(C)O)cc1F)COC2` (stereo not drawn) [Example 246, N-(amino(3-fluoro-5-(2-hydroxypropan-2-yl)thiophen-2-yl)(oxo)-λ^6-sulfaneylidene)-2-(4,6-diisopropyl-1,3-dihydroisobenzofuran-5-yl) acetamide], with 40 to 200 nM; and `CC(C)c1cc(F)cc(C(C)C)c1CC(=O)N=[S@@](=O)(NC#N)c1ncc(C(C)(C)O)s1` [Example 342, (R)-N-(cyanamido(5-(2-hydroxypropan-2-yl)thiazol-2-yl)(oxo)-λ^6-sulfaneylidene)-2-(4-fluoro-2,6-diisopropylphenyl)acetamide], with 1000 to 5000 nM.
Take `CC(C)c1cc(CCC2CCCCC2)cc(C(C)C)c1CC(=O)N=S(N)(=O)c1cc(C(C)(C)O)n(-c2ccccc2)n1` (stereo not drawn) [Example 228, N-(amino(5-(2-hydroxypropan-2-yl)-1-phenyl-1H-pyrazol-3-yl)(oxo)-λ^6-sulfaneylidene)-2-(4-(2-cyclohexylethyl)-2,6-diisopropylphenyl)acetamide]: the IC50 is 5000 to 30000 nM.

The same test, now with this note: Homo sapiens, THP-1, Table B2; 2% fetal bovine serum; class symbols; read-out: hTHP-1 IC50 (Average IC50 of compounds in hTHP-1 assay).
For `CC(C)(O)c1ncc([S@@](=O)(=NC(=O)Cc2c3c(cc4c2CC4)CCC3)NC#N)s1` [Example 362, (R)-N-(cyanamido(2-(2-hydroxypropan-2-yl)thiazol-5-yl) (oxo)-λ^6-sulfaneylidene)-2-(2,4,5,6-tetrahydro-1H-cyclobuta [f]inden-3-yl)acetamide], the IC50 fell in the range of 1000 to 5000 nM.
Regarding `CC(C)(O)c1ncc([S@](=O)(=NC(=O)Cc2c3c(cc4c2CC4)CCC3)NC#N)s1` [Example 363, (S)-N-(cyanamido(2-(2-hydroxypropan-2-yl)thiazol-5-yl) (oxo)-λ^6-sulfaneylidene)-2-(2,4,5,6-tetrahydro-1H-cyclobuta [f]inden-3-yl)acetamide], the IC50 fell in the range of 200 to 1000 nM.
On the same count and under the same terms, then `CC(C)c1cc(C#N)cc(C(C)C)c1CC(=O)N=[S@@](=O)(NC#N)c1sc(C(C)(C)O)nc1CO` [Example 366, (R)-N-(cyanamido(4-(hydroxymethyl)-2-(2-hydroxypropan-2-yl)thiazol-5-yl)(oxo)-λ^6-sulfaneylidene)-2-(4-cyano-2,6-diisopropylphenyl)acetamide], with 5000 to 30000 nM.

Still in this test, the particulars now being: Table B1; 2% fetal bovine serum; class symbols; read-out: hTHP-1 IC50 (Average IC50 of compounds in hTHP-1 assay).
On to `CC(C)c1cc(Cl)c(F)c(C2CC2)c1CC(=O)N=S(N)(=O)c1sc(C(C)(C)O)cc1F` (single isomer, unassigned) [Example 57, (R)- or (S)-2-(4-chloro-2-cyclopropyl-3-fluoro-6-isopropylphenyl)-N-(3-fluoro-5-(2-hydroxypropan-2-yl)thiophen-2-ylsulfonimidoyl)acetamide], for which the IC50 lay within 1000 to 5000 nM.
As to `CC(C)c1cc(-c2ccc3ccccc3c2)cc(C(C)C)c1CC(=O)N=S(N)(=O)c1cnc(C(C)(C)O)s1` (single isomer, unassigned) [Example 163, (R) or (S)-N-(amino(2-(2-hydroxypropan-2-yl)thiazol-5-yl)(oxo)-λ^6-sulfaneylidene)-2-(2,6-diisopropyl-4-(naphthalen-2-yl)phenyl) acetamide], the IC50 is 40 to 200 nM.
As to `CCc1c2c(cc(C(C)C)c1CC(=O)N=S(N)(=O)c1sc(C(C)(C)O)cc1F)COC2` (single isomer, unassigned) [Example 300, (R) or (S)-N-(amino (3-fluoro-5-(2-hydroxypropan-2-yl)thiophen-2-yl)(oxo)-λ^6-sulfaneylidene)-2-(4-ethyl-6-isopropyl-1,3-dihydroisobenzofuran-5-yl)acetamide], the half-inhibitory concentration (IC50) was 200 to 1000 nM.
Still for that read-out and setting: for `Cc1sc(S(N)(=O)=NC(=O)Cc2c(C(C)C)ccc(F)c2C(C)C)cc1C(C)(C)O` (single isomer, unassigned) [Example 173, (R) or (S)-N-(amino(4-(2-hydroxypropan-2-yl)-5-methylthiophen-2-yl)(oxo)-λ^6-sulfaneylidene)-2-(3-fluoro-2,6-diisopropylphenyl) acetamide] the value was 200 to 1000 nM; for `CC(C)c1cc(OC(F)F)cc(C(C)C)c1CC(=O)N=S(N)(=O)c1sc(C(C)(C)O)cc1F` (single isomer, unassigned) [Example 76, (S)- or (R)-2-(4-(difluoromethoxy)-2,6-diisopropylphenyl)-N-(3-fluoro-5-(2-hydroxypropan-2-yl)thiophen-2-ylsulfonimidoyl)acetamide], 40 to 200 nM; for `CC(C)c1cc(C#N)c(F)c(C(C)C)c1CC(=O)N=S(N)(=O)c1nc(C(C)(C)O)cs1` (single isomer, unassigned) [Example 189, (S) or (R)-N-(amino(4-(2-hydroxypropan-2-yl)thiazol-2-yl)(oxo)-λ^6-sulfaneylidene)-2-(4-cyano-3-fluoro-2,6-diisopropylphenyl) acetamide], 1000 to 5000 nM.
As for `CC(C)c1ccc(F)c(C(C)C)c1CC(=O)N=S(N)(=O)c1nc(C(C)(C)O)cs1` (single isomer, unassigned) [Example 181, (R) or (S)-N-(amino(4-(2-hydroxypropan-2-yl)thiazol-2-yl)(oxo)-λ^6-sulfaneylidene)-2-(3-fluoro-2,6-diisopropylphenyl) acetamide], the half-inhibitory concentration (IC50) fell in the range of 40 to 200 nM.
In the case of `CC(C)c1ccc(F)c(C(C)C)c1CC(=O)N=S(N)(=O)c1cnc(C(C)(C)O)s1` (single isomer, unassigned) [Example 162, (S) or (R)-N-(amino(2-(2-hydroxypropan-2-yl)thiazol-5-yl)(oxo)-λ^6-sulfaneylidene)-2-(3-fluoro-2,6-diisopropylphenyl) acetamide], the IC50 lay within 5000 to 30000 nM.
For the compound `CC(C)c1cc(F)c(F)c(C(C)C)c1CC(=O)N=S(N)(=O)c1nc(C(C)(C)O)cs1` (single isomer, unassigned) [Example 178, (S) or (R)-N-(amino(4-(2-hydroxypropan-2-yl)thiazol-2-yl)(oxo)-λ^6-sulfaneylidene)-2-(3,4-difluoro-2,6-diisopropylphenyl) acetamide], the half-maximal inhibitory concentration (IC50) fell in the range of 1000 to 5000 nM.
With `COCc1cc(C(C)C)c(CC(=O)N=S(N)(=O)c2sc(C(C)(C)O)nc2CO)c(C(C)C)c1` (stereo not drawn) [Example 24, 2-(2,6-diisopropyl-4-(methoxymethyl)phenyl)-N-(4-(hydroxymethyl)-2-(2-hydroxypropan-2-yl)thiazole-5-sulfonimidoyl)acetamide], the IC50 lay in the range of 200 to 1000 nM.

The test is the same for the next values; noted with them: Table B2; 2% fetal bovine serum; class symbols; read-out: hTHP-1 IC50 (Average IC50 of compounds in hTHP-1 assay).
On to `CC(C)c1cc(F)cc(C(C)C)c1CC(=O)N=S(N)(=O)c1sc(C(C)(C)O)nc1CO` (racemic) [Example 357, (R) and (S)—N-(amino(4-(hydroxymethyl)-2-(2-hydroxypropan-2-yl)thiazol-5-yl)(oxo)-λ^6-sulfaneylidene)-2-(4-fluoro-2,6-diisopropylphenyl)acetamide], for which the IC50 lay within 5000 to 30000 nM.
Same read-out and setting: then `CC(C)c1cc(C#N)c(F)c(C(C)C)c1CC(=O)N=S(N)(=O)c1sc(C(C)(C)O)nc1CO` (racemic) [Example 353, (S) and (R)—N-(amino(4-(hydroxymethyl)-2-(2-hydroxypropan-2-yl)thiazol-5-yl)(oxo)-λ^6-sulfaneylidene)-2-(4-cyano-3-fluoro-2,6-diisopropylphenyl)acetamide], with 5000 to 30000 nM.
